Several values for one entry are separate records, joined by “and”; a condition that tells them apart may be missing. Equal values may be shown once. Read-outs that look alike come from different tables or passages of the source. Marks after values point to notes of the source that are not given here.
Key:
Puccinia recondita = assay: In vivo test on Puccinia recondita (brown rust); conditions: dose of 500 ppm; wheat plants; grading 10 days after contamination
Method: In Vivo Test on Puccinia recondita (Brown Rust)
(§1) The active ingredients tested are prepared by homogenization in a mixture of acetone/tween/DMSO, then diluted with water to obtain the desired active material.
Wheat plants (Scipion variety) sown on 50/50 peat soil-pozzolana substrate in starter cups and grown at 12° C., are treated at the 1-leaf stage (10 cm tall) by spraying with the aqueous suspension described above.
(§2) Plants, used as controls, are treated with an aqueous solution not containing the active material.
After 24 hours, the plants are contaminated by spraying the leaves with an aqueous suspension of Puccinia recondita spores (100,000 spores per ml). The spores are collected from a 10-day-old contaminated wheat and are suspended in water containing 2.5 ml/l of tween 80 10%. The contaminated wheat plants are incubated for 24 hours at 20° C. and at 100% relative humidity, and then for 10 days at 20° C. and at 70% relative humidity.
Grading is carried out 10 days after the contamination, in comparison with the control plants.

Rhizoctonia solani = assay: Rhizoctonia test (rice) / protective; format: in vivo; conditions: 500 ppm active compound, protective spray, evaluated 4 days after inoculation
Method: Rhizoctonia Test (Rice)/Protective
Solvent: 28.5 parts by weight of acetone
Emulsifier: 1.5 parts by weight of polyoxyethylene alkyl phenyl ether
To produce a suitable preparation of active compound, 1 part by weight of active compound is mixed with the stated amounts of solvent and emulsifier, and the concentrate is diluted with water to the desired concentration.
To test for protective activity, young plants are sprayed with the preparation of active compound at the stated rate of application. One day after spraying, the plants are inoculated with a hypha of the causal agent of rice sheath blight (Rhizoctonia solani). The plants are then placed in an incubator at approximately 25° C. and a relative atmospheric humidity of approximately 100%.
The test is evaluated 4 days after the inoculation. 0% means an efficacy which corresponds to that of the control, while an efficacy of 100% means that no disease is observed.

Sphaerotheca fuliginea = assay: In vivo test on Sphaerotheca fuliginea (cucurbits powdery mildew); conditions: dose of 500 ppm; gherkin plants; grading 12 days after contamination
Method: In Vivo Test on Sphaerotheca fuliginea (Cucurbits Powdery Mildew)
as §1
Gherkin plants (Vert petit de Paris variety) in starter cups, sown on a 50/50 peat soil-pozzolana substrate and grown at 20° C./23° C., are treated at the cotyledon Z10 stage by spraying with the aqueous suspension described above. Plants, used as controls, are treated with an aqueous solution not containing the active material.
After 24 hours, the plants are contaminated by spraying them with an aqueous suspension of Sphaerotheca fuliginea spores (100 000 spores per ml). The spores are collected from a contaminated plants. The contaminated gherkin plants are incubated at about 20° C./25° C. and at 60/70% relative humidity.
Grading (% of efficacy) is carried out 12 days after the contamination, in comparison with the control plants.

Peronospora parasitica = assay: In vivo test on Peronospora parasitica (crucifer downy mildew); conditions: dose of 500 ppm; cabbage plants; grading 5 days after contamination
Method: In Vivo Test on Peronospora parasitica (Crucifer Downy Mildew)
The active ingredients tested are prepared by homogenization in a mixture of acetone/Tween/DMSO, then diluted with water to obtain the desired active material concentration.
Cabbage plants (Eminence variety) in starter cups, sown on a 50/50 peat soil-pozzolana substrate and grown at 18-20° C., are treated at the cotyledon stage by spraying with the aqueous suspension described above.
as §2
After 24 hours, the plants are contaminated by spraying them with an aqueous suspension of Peronospora parasitica spores (50 000 spores per ml). The spores are collected from infected plant.
The contaminated cabbage plants are incubated for 5 days at 20° C., under a humid atmosphere.
Grading is carried out 5 days after the contamination, in comparison with the control plants.

[1] = system: Mycosphaerella graminicola; assay: In vivo test on Mycosphaerella graminicola (wheat leaf spot); conditions: dose of 500 ppm; wheat plants; grading 21 to 28 days after contamination
Method: In Vivo Test on Mycosphaerella graminicola (Wheat Leaf Spot)
The active ingredients tested are prepared by homogenization in a mixture of acetone/tween/DMSO, then diluted with water to obtain the desired active material concentration.
Wheat plants (Scipion variety), sown on a 50/50 peat soil-pozzolana substrate in starter cups and grown at 12° C., are treated at the 1-leaf stage (10 cm tall) by spraying with the aqueous suspension described above. Plants, used as controls, are treated with an aqueous solution not containing the active material.
After 24 hours, the plants are contaminated by spraying them with an aqueous suspension of Mycosphaerella graminicola spores (500 000 spores per ml). The spores are collected from a 7-day-old culture. The contaminated wheat plants are incubated for 72 hours at 18° C. and at 100% relative humidity, and then for 21 to 28 days at 90% relative humidity.
Grading (% of efficacy) is carried out 21 to 28 days after the contamination, in comparison with the control plants.

Cochliobolus miyabeanus = assay: Cochliobolus test (rice) / protective; format: in vivo; conditions: 500 ppm active compound, protective spray, evaluated 4 days after inoculation
[2] = for logP value of the minor isomer (in parenthesis in column Isomer ratio [d]): main value of the example measured by method [b]
Fusarium proliferatum = assay: Production of fumonisin FB1 by Fusarium proliferatum (microtiter plate, HPLC-MS/MS and OD620); format: cell-based; conditions: for % inhibition FB1 production at 50 μM: 5 days at 20° C., HPLC-MS/MS; for % inhibition fungal growth at 50 μM: Fusarium proliferatum, OD620 at start and after 5 days
Pyrenophora teres = assay: In vivo test on Pyrenophora teres (barley net blotch); conditions: dose of 500 ppm; barley plants; grading 12 days after contamination
Procedure, shortened: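 Barley plants (Plaisant) grown at 12° C. sprayed at 1-leaf stage with compound in acetone/Tween/DMSO diluted in water; 24 h later inoculated with P. teres spores (12,000 spores/ml). Incubated 24 h at ~20° C., 100% RH, then 12 days at 80% RH; graded 12 days post-inoculation against untreated controls.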

Botrytis cinerea = assay: In vivo test on Botrytis cinerea (grey mould); conditions: dose of 500 ppm; gherkin plants; grading 5/7 days after contamination
Method: In Vivo Test on Botrytis cinerea (Grey Mould)
The active ingredients tested are prepared by homogenization in a mixture of acetone/Tween/DMSO, then diluted with water to obtain the desired active material
Gherkin plants (Vert petit de Paris variety), sown on a 50/50 peat soil-pozzolana substrate in starter cups and grown at 18-20° C., are treated at the cotyledon Z11 stage by spraying with the active ingredient prepared as described above.
as §2
After 24 hours, the plants are contaminated by depositing drops of an aqueous suspension of Botrytis cinerea spores (150,000 spores per ml) on upper surface of the leaves. The spores are collected from a 15-day-old culture and are suspended in a nutrient solution composed of: • 20 g/L of gelatine; • 50 g/L of D-fructose; • 2 g/L of NH4NO3; • 1 g/L of KH2PO4.
The contaminated cucumber plants are settled for 5/7 days in a climatic room at 15-11° C. (day/night) and at 80% relative humidity.
Grading is carried out 5/7 days after the contamination, in comparison with the control plants.

Fusarium graminearum = format: cell-based; conditions: 50 μM; for % Inhibition of DON/AcDON at 50 μM: 7 days at 28° C.
Alternaria solani = assay: Alternaria test (tomato) / protective; format: in vivo; conditions: 500 ppm active compound, protective spray, evaluated 7 days after inoculation
Procedure, shortened: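 Young tomato plants sprayed protectively with compound formulated in DMF with alkylaryl polyglycol ether emulsifier and diluted in water to the application rate. After inoculation, plants held at 96% rel. humidity and 20° C. Efficacy scored 7 days post-inoculation: 0% equals untreated control, 100% no infection.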

Leptosphaeria nodorum = Leptosphaeria nodorum test (wheat) / protective; format: in vivo; conditions: 500 ppm active compound, protective spray, evaluated 7-9 days after inoculation
Procedure, shortened: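 Young wheat plants sprayed protectively with compound in DMF/alkylaryl polyglycol ether emulsion diluted in water, then kept in greenhouse at 90% rel. humidity, 22° C. Scored 7-9 days after inoculation as % efficacy, 0% equal to untreated control and 100% no infection.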

[3] = logP by HPLC at pH 2.3 (0.1% phosphoric acid / acetonitrile); format: physicochemical; conditions: method [a]: pH 2.3 with 0.1% phosphoric acid and acetonitrile as eluent

Row | SMILES | protection (Puccinia recondita) | protection (% of efficacy) (Sphaerotheca fuliginea) [%] | protection (% of efficacy) [1] [%] | log p ([2]; pH 2.7) | protection (Pyrenophora teres) [%] | protection (Botrytis cinerea) | other results
1 | C=CC(C)n1cc(-c2ccncc2)c(-c2ccc(Cl)s2)n1 (racemic) [Example 61] | 77% | 94 | 77 | 1.91^[b] |  |  | efficacy (Rhizoctonia solani): 98%; protection (Peronospora parasitica): 100%; efficacy (Cochliobolus miyabeanus): 92%; logP value of the minor isomer (in parenthesis in column Isomer ratio [d]) ([2]; pH 2.7): (1.76)
2 | Clc1ccc(-c2n[nH]cc2-c2ccncc2)s1 [Example 1] |  |  | 75 | 0.96^[b] | 90 |  | % inhibition FB1 production at 50 μM (Fusarium proliferatum): 82%; % inhibition fungal growth at 50 μM (Fusarium proliferatum): 41%
3 | Clc1ccc(-c2n[nH]cc2-c2ccncn2)s1 [Example 3] |  |  | 86 | 1.74^[b] |  |  | % inhibition FB1 production at 50 μM (Fusarium proliferatum): 99%; % inhibition fungal growth at 50 μM (Fusarium proliferatum): 46%; log p ([2]; pH 2.3): 1.82^[a];
4 | CC(C)Cn1ncc(-c2ccncc2)c1-c1ccc(Cl)s1 [Example 6] | 70% | 75 | 70 |  |  |  | log p ([2]; pH 2.3): 2.2^[a]
5 | Clc1ccc(-c2nn(C3CCCC3)cc2-c2ccncc2)s1 [Example 15] |  | 92 |  | 2.25^[b] | 89 | 100% | 
6 | CC(C)CCn1cc(-c2ccncc2)c(-c2ccc(Cl)s2)n1 [Example 17] | 70% |  | 70 | 2.45^[b] | 100 |  | 
7 | Clc1ccc(-c2nn(C3CCC3)cc2-c2ccncc2)s1 [Example 18] | 89% | 83 |  | 2.04^[b] | 100 | 100% | 
8 | CC(C)Cn1cc(-c2ccncc2)c(-c2ccc(Cl)s2)n1 [Example 21] | 75% and 85% | 89 | 85 | 2.08^[b] | 100 | 100% | % Inhibition of fungal growth at 50 μM (Fusarium graminearum): 96%; % Inhibition of DON/AcDON at 50 μM (Fusarium graminearum): 100%; % inhibition FB1 production at 50 μM (Fusarium proliferatum): 100%; % inhibition fungal growth at 50 μM (Fusarium proliferatum): 91%
9 | Clc1ccc(-c2nn(C3CCCCO3)cc2-c2ccncc2)s1 (centres unmarked) [Example 45] |  |  | 71 | 1.91^[b] |  |  | 
10 | ClC(Cl)=CCn1cc(-c2ccncc2)c(-c2ccc(Cl)s2)n1 [Example 50] |  |  |  | 2.3^[b] | 70 |  | efficacy (Rhizoctonia solani): 93%; logP value of the minor isomer (in parenthesis in column Isomer ratio [d]) ([2]; pH 2.7): (2.07)
11 | COCn1cc(-c2ccncc2)c(-c2ccc(Cl)s2)n1 [Example 52] | 97% | 90 | 97 | 1.38^[b] | 86 | at least 70% | 
12 | FC(F)(F)Cn1cc(-c2ccncc2)c(-c2ccc(Cl)s2)n1 [Example 54] |  |  |  | 1.88^[b] |  |  | efficacy (Rhizoctonia solani): 100%; efficacy (Cochliobolus miyabeanus): 90%
13 | ClCCn1cc(-c2ccncc2)c(-c2ccc(Cl)s2)n1 [Example 55] |  |  |  | 1.65^[b] | 80 | 75% | logP value of the minor isomer (in parenthesis in column Isomer ratio [d]) ([2]; pH 2.7): (1.50)
14 | FCCn1cc(-c2ccncc2)c(-c2ccc(Cl)s2)n1 [Example 62] | 88% | 94 |  | 1.39^[b] |  | 98% | protection (Peronospora parasitica): 89%; logP value of the minor isomer (in parenthesis in column Isomer ratio [d]) ([2]; pH 2.7): (1.25)
15 | CCC(CC)n1cc(-c2ccncc2)c(-c2ccc(Cl)s2)n1 [Example 64] | 88% | 98 | 88 | 2.18^[b] | 95 | 98% | efficacy (Rhizoctonia solani): 100%; efficacy (Alternaria solani): 80%; efficacy (Cochliobolus miyabeanus): 97%; efficacy (Leptosphaeria nodorum): 78%
16 | CC(=O)Nc1cc(-c2cn(CC(C)C)nc2-c2ccc(Cl)s2)ccn1 [Example 358] |  |  |  |  | 80 |  | efficacy (Alternaria solani): 100%; % Inhibition of fungal growth at 50 μM (Fusarium graminearum): 102%; % Inhibition of DON/AcDON at 50 μM (Fusarium graminearum): 100%; log p [3]: 2.96^[a]
17 | CC(C)Cn1cc(-c2ccnc(NC(=O)C3CC3)c2)c(-c2ccc(Cl)s2)n1 [Example 359] |  |  |  |  | 70 |  | efficacy (Alternaria solani): 94%; % Inhibition of fungal growth at 50 μM (Fusarium graminearum): 62%; % Inhibition of DON/AcDON at 50 μM (Fusarium graminearum): 100%; log p [3]: 3.48^[a]; efficacy (Leptosphaeria nodorum): 90%
18 | COCC(=O)Nc1cc(-c2cn(CC(C)C)nc2-c2ccc(Cl)s2)ccn1 [Example 360] |  |  |  |  |  |  | efficacy (Alternaria solani): 78%; % Inhibition of fungal growth at 50 μM (Fusarium graminearum): 12%; % Inhibition of DON/AcDON at 50 μM (Fusarium graminearum): 100%; log p [3]: 3.78^[a]

From patent US8685974B2 (Bayer CropScience AG, priority 2009, dated 2014)
